These results are taken from US7776572B2, “Method for reducing loss of enzyme activity during storage” (Corning Incorporated, priority 1996, dated 2010).

The subject of data set [1] is MDCK cells. Put plainly: Cytotoxicity of extracts of coated plates. The format is cell-based. The note with it: media extract of coated plates (37° C., 48 hours), MDCK 72 hours, Gram Crystal Violet. On the procedure: Cytotoxicity experiments were performed using MDCK cells. The non-ionic surfactants tested were Pluronic L-121, L-122, and P-123; Span 80 and 85; and Brij 30, 72 and 93. These molecules were coated onto 24-well plates (Corning Costar #9447) from 0.1% (w/v) in isopropanol. Untreated polystyrene and normal tissue culture treated polystyrene (Corning Costar #25820) 24-well plates were used as controls. All plates were incubated at 37° C. for 48 hours with 2 ml/well of complete DMEM media containing 10% Fetal Bovine Serum (FBS). This incubation was performed in order to extract any potentially toxic compounds from the coated surface into the cell growth serum. The FBS solutions were then transferred to tissue culture treated polystyrene and each well was inoculated with ≈2×10^4 cells/well of MDCK cells, and then incubated at 37° C. for 72 hours in a 5% CO2 atmosphere. Cells were then stained with Gram Crystal Violet.

In data set [2] the test system is ^125I-IgG (goat anti-mouse). Kind of data set: Radiometric determination of IgG binding to surfactant-coated polystyrene microtiter wells. On the procedure: The hydrophobic surfaces used were flat bottom microtiter plates composed of high binding polystyrene (Corning Costar No. 2581) and medium binding polystyrene (Corning Costar No. 2587). Testing was performed with and without gamma radiation sterilization using cobalt 60 (1.5 Mrad).
The surfactants were applied to the test plates as described in Materials and Methods, followed by sterilization where indicated.
Levels of protein binding were determined using a radiolabeled protein, namely, ^125I-IgG (goat anti-mouse) purchased from DuPont/NEN. Unlabeled IgG in sodium carbonate buffer pH 9.2 was spiked with ^125I-IgG so that the final concentration of labeled IgG and cold IgG in the test solution was 10 μg/mL.
Aliquots of 0.1 milliliters of the protein solution were placed in quadruplicate in the wells of 8-well strips removed from the test microtiter plates. The wells were incubated overnight at 4° C. with shaking. The supernatants were removed from the wells, followed by three washes with 0.2 mL of PBS. The wells were then dried and individually counted to determine “total” IgG binding. After determining “total” binding, the wells were incubated for two hours in 0.2 mL of PBS-Tween (0.05%) at room temperature with shaking. The supernatants were removed from the wells followed by three washes with 0.2 mL of PBS. The wells were dried and individually counted to determine “tight” IgG binding.
Untreated high binding and medium binding plates were used as controls. A comparative experiment was also performed in which a BSA protein coating was used in place of a surfactant coating. The BSA was preabsorbed onto the walls of the wells and then washed to remove excess material. Testing was then performed using the radiolabeled IgG solution as described above.
Radiolabel measurements were performed in a double blind study at BioMolecular Assays (Woburn, Mass.). IgG binding values per microwell were converted to ng/cm^2 values using a surface area of 0.94 cm^2 for a 0.1 mL volume.

Data set [3] concerns Horse IgG. Put plainly: Protein binding by colloidal gold staining, coated medium binding polystyrene plates. As to conditions: coated medium binding PS; IgG 10 μg/ml, pH 9.4. The method, then:
Except where indicated, the non-ionic surfactants were applied to the hydrophobic surfaces being tested as a 0.1% (weight/volume) solution in isopropanol. A sufficient amount of coating solution was used to cover the surface being testing with a thin layer of the solution (e.g., 25 μl of the solution per well for a standard 24-well plate). In some cases, the solution was applied to surface by spraying; in others, it was poured onto the surface (into the well). Except where indicated, coated samples were either dried at 70° C. for 30 minutes in an air circulated oven or dried at room temperature overnight to evaporate the isopropanol.
Protein binding was determined in some examples using a colloidal gold straining procedure. In accordance with this procedure, colloidal gold becomes electrostatically attached to bound protein and is detected by measuring absorbance at 550 nanometers. Bio-Rad Laboratories' Colloidal Gold Total Protein Stain was used for this purpose, with absorbance being measured with a Cambridge Technologies Plate Reader (No. 7520).
The surfactants were coated onto medium binding polystyrene plates (Corning Costar No. 2587) as described in Material and Methods.
The plates were incubated with IgG as follows: 0.1 ml of Horse IgG (Pierce Labs) at a working concentration of 10 μg/ml in 0.10M NaHCO3 buffer (pH9.4) were added to each well, incubated 30 minutes on a rocker table, and rinsed with dI H2O. The plates were gold stained overnight (0.3 ml/well), rinsed in dI H2O, air dried, and absorbance was measured at 550 nm.

The test system of data set [4] is HRP-Goat A'Mouse IgG. Put plainly: Enzymatic determination of protein binding to coated medium binding polystyrene plate. The note with it: coated medium binding PS; versus uncoated high binding polystyrene plate; absorbance 405 nm. On the procedure:
The surfactants were coated onto a medium binding polystyrene plate (Corning Costar No. 2587) as described in Material and Methods. A medium binding polystyrene plate (Corning Costar No. 2587) and a high binding polystyrene plate (Corning Costar No. 2581) were used as controls.
(a) HRP-Goat A'Mouse IgG: Kirkegaard & Perry Laboratories, Inc. Catalog No. 074-1806. Stock solution: 0.5 mg/ml; working concentration: 0.04 μg/ml. The working concentration was obtained by adding 11 μl of the stock solution per 25 mls of PBS pH 7.4 to produce a work stock (WS), and then diluting 1:6 (i.e., 10 mls WS+50 mls PBS pH 7.4).
(1) 100 μl-well of HRP-Goat A'Mouse IgG at a concentration of 0.04 μg/ml were added to the test wells and incubated for 1 hour at room temperature.
(2) The wells were then washed 5 times with the 1M wash solution. Each wash include a 5 minute soak followed by decanting.
(3) 100 μl/well of substrate (30 mls ABTS+30 mls H2O2) were added to the test wells and incubated for 15 minutes at room temperature in the dark.
(4) 100 μl/well of stopping solution (1% SDS) were added to the test wells.
(5) The plates were then shaken and read at 405 nm.
(6) Reduction in binding was determined by comparing the absorbance measured in step (5) with the absorbance measured for a high binding polystyrene plate which had not been treated with a non-ionic surfactant but otherwise subjected to steps (1) to (5).

The test system of data set [5] is BSA. Kind of data set: Polymer blends molded into petri dishes, BSA binding by colloidal gold.
Procedure: (§3) Low binding non-ionic surfactant molecules were blended at 5% (except as noted in Table 13) into a base polymer using a twin screw extruder, then injection molded into the shape of 35 mm petri dishes. Proteins tested were BSA and Fetal Bovine Serum (FBS). Protein binding was determined using a colloidal gold staining procedure as described above. In the case of the polypropylene and EVA blends, a silver enhancer was used (Sigma Chem. Co., St, Louis, Mo., Kit #SE-100).
The subject of data set [6] is BSA protein (Bovine Serum Albumin, Fraction V). Kind of data set: BSA binding to coated polystyrene 24-well plates at different pH, colloidal gold stain. As to conditions: for Absorbance (550 nm) pH = 9.2: BSA 10 μg/ml in 0.10 M NaHCO3 buffer; for Absorbance (550 nm) pH = 7.4: BSA 10 μg/ml in 0.10 M PBS; for Absorbance (550 nm) pH = 4.6: BSA 10 μg/ml in 0.10 M acetate buffer. On the procedure: Polystyrene plates having 24 wells (Corning Costar #9447) were coated as described in Materials and Methods.
BSA protein (Bovine Serum Albumin, Fraction V, Sigma) was prepared at 10 μg/ml in 0.10 M acetate buffer (pH=4.6), in 0.10 M PBS (pH=7.4), and in 0.10 M NaHCO3 buffer (pH=9.2). Wells of each coated plate, along with uncoated controls, were aliquoted 0.50 ml each of the protein solutions. The samples were run in triplicate.
The plates were placed on a rocker table for 30 minutes at 23° C. The protein solutions were then emptied from the plates, and the wells were rinsed three times with dl H2O. Thereafter, 1.0 ml of colloidal gold stain was added to each well (see Materials and Methods). The plates were placed on a rocker table overnight, rinsed three times with dI H2O, and air dried. Absorbance at 550 nm was then read using the Cambridge Technologies Plate Reader.

Data set [7] relates to Fetal Bovine Serum (FBS). Put plainly: Polymer blends molded into petri dishes, FBS protein binding by colloidal gold.
Procedure: as §3
The test system of data set [8] is rat. The note with it: cited from earlier work.
Data set [9] has as its system IgG. Put plainly: Coating durability using water washes, IgG binding by colloidal gold. The method, then:
Polystyrene plates having 24 wells (Corning Costar #9447) were coated with these surfactants as described in Materials and Methods. Durability was tested by adding dI H2O to the wells of a test plate (3.0 mls/well), following which the plate was placed on a rocker table. […] The protein solution was incubated with the plate on a rocker table for 30 minutes at 23° C., following which the plate was H2O rinse 3× (3 mls each time). The colloidal gold staining procedure described above was used to reveal bound protein. The staining comprised an overnight incubation on a rocker table at 23° C., a dI H2O rinse, drying at room temperature, and reading at 550 nm.

Data set [10] has as its system bound protein. Kind of data set: Colloidal gold staining of bound protein after MDCK culture in media containing 5% FBS, visual. The note with it: colloidal gold after cell culture, visual observation. The method, then:
(§1) The procedures used were as follows. Polystyrene 24-well plates were coated with the non-ionic surfactants listed in Table 5 in accordance with the procedures described in Materials and Methods. Uncoated plates were used as a control. For comparison, plates with a covalently attached acrylamide coating (Corning Costar Catalog #2500) and with a stearic acid coating were also tested. The stearic acid coating was applied in the same manner as the non-ionic surfactants again using a 0.1% (w/v) solution.
(§2) The plates were gamma sterilized at 1.5 Mrad and then inoculated with 5.6×10^4 MDCK […] per well in 1 ml of complete media containing 5% FBS (Fetal Bovine Serum). Incubation was carried out at 37° C. in a 5% CO2 atmosphere for two days. The plates were fixed and stained, and cell attachment was noted. Following this, the wells were stained using the colloidal gold technique to detect bound protein. Only visual observations were made.

For data set [11], the system named is MDCK cells. Kind of data set: MDCK cell attachment to coated polystyrene 24-well plates. The class given is cell-based. As to conditions: coated PS 24-well, gamma sterilized, media with 5% FBS, two days, visual. The method, then:
as §1, §2
Experiments were also performed with cells suspended in serum. The cells used in these experiments were MDCK cells. The surfactants used were the same as used in Table 5. Again, reduced binding of the cells to surfaces treated with a non-ionic surfactant was observed.

Where [12] appears, read: blended at 5% into polypropylene, silver enhancer.

Marks after values point to notes of the source that are not given here. A value given as a limit tells only on which side of the number the result lay.

For `CCCCCCCCCCCCCCCCCCOCCOCCO` [PEO(2) STEARYL ETHER], the “cell growth and morphology” value in data set [1] is “confluent cell growth with normal cell morphology”. The “Total IgG binding, Non-Sterilized” value in data set [2] (coated polystyrene wells, not sterilized, after three PBS washes) is given as 83 ng/cm^2. For the same molecule, the “Total IgG binding, Sterilized” value in [2] (gamma sterilized (1.5 Mrad), after three PBS washes) was 36 ng/cm^2. Moreover, the “Tight IgG binding, Sterilized” value in [2] (gamma sterilized (1.5 Mrad), after two hours in PBS-Tween (0.05%)) was 17 ng/cm^2. The “Tight IgG binding, Non-Sterilized” value in data set [2] (not sterilized, after two hours in PBS-Tween (0.05%)) is given as 28 ng/cm^2. The “IgG Protein Binding Absorbance (550 nm)” value in [3] was found to be 0.00. In addition, the “% Reduction in Protein Binding” value in [4] is 97.9%. Also, the “BSA or FBS protein binding” value in data set [5] (blend in polypropylene or EVA) is “no detectable”. Besides, the “Bound Protein Absorbance (550 nm) BSA” value came to 0.000 in [5] (setting [12]) and 0.008 in data set [5] (blended at 5% into polystyrene). Besides, the “Absorbance (550 nm) pH = 9.2” value in [6] worked out at 0.00. Further, the “Absorbance (550 nm) pH = 7.4” value in data set [6] was determined as 0.00. Besides, in [6], the “Absorbance (550 nm) pH = 4.6” value is given as 0.00. The “Bound Protein Absorbance (550 nm) FBS” value was found to be 0.000 in data set [7] (setting [12]) and 0.009 in data set [7] (blended at 5% into polystyrene). Also, the LD50 in [8] was more than 25 grams/Kg.

Consider SORBITOL MONO-PALMITATE, for which the “Absorbance (550 nm) Initial” value in [9] (coated polystyrene, no water wash) was 0.00. Besides, the “Absorbance (550 nm) 1 Time 1 hr 23° C.” value in data set [9] (dI H2O wash 1 time, 1 hr, 23° C.) was found to be 0.00. For the same molecule, the “Absorbance (550 nm) 1 Time 24 hr 23° C.” value in [9] (dI H2O wash 1 time, 24 hr, 23° C.) came out at 0.00. The “Absorbance (550 nm) 1 Time 24 hr 37° C.” value in data set [9] (dI H2O wash 1 time, 24 hr, 37° C.) turned out to be 0.00. The “Absorbance (550 nm) 1 Time 24 hr 70° C.” value in data set [9] (dI H2O wash 1 time, 24 hr, 70° C.) was 0.00. In addition, the “Absorbance (550 nm) 6 Times 30 min each 23° C.” value in data set [9] (dI H2O wash 6 times, 30 min each, 23° C.) was 0.02-0.06. Besides, the “Visual Color Upon Protein Staining” value in data set [10] is on record as “None”. Further, the “IgG Protein Binding Absorbance (550 nm)” value in data set [3] turned out to be 0.00. Further, the “% Reduction in Protein Binding” value in data set [4] was 88.9* %. In data set [6], the “Absorbance (550 nm) pH = 9.2” value is 0.00, the “Absorbance (550 nm) pH = 7.4” value amounted to 0.00 and the “Absorbance (550 nm) pH = 4.6” value is 0.00. In [11], the “MDCK Attachment” value was “None”.
